Results taken from US5994569A, “Dihomo-seco-cholestanes” (Hoffmann-La Roche Inc., priority 1997, dated 1999).
Like-named read-outs stand apart in the source and are kept apart here.

Tested on: IL-12 production
Test: In vitro Assay for IL-12 Inhibition (IL-12 production by THP-1 cells or human peripheral whole blood, ELISA)
Assay type: cell-based
Details: read-out: IC50 values for the inhibition of IL-12 production
[1] = THP-1 cells stimulated with SAC and huIFN-γ (1000 U/ml), or alternatively human peripheral whole blood primed with huIFN-γ then SAC, supernatants after 48 hours, IL-12 by ELISA

Structure (SMILES) | IC50 (Homo sapiens, THP-1, 48 h) [nM] | IC50 [1] [nM]
C=C1/C(=C\C=C2/CCC[C@]3(C)[C@@H]([C@H](C)CCCC(C)(C)O)CC[C@@H]23)C[C@@H](O)C[C@@H]1O [Calcitriol, reference compound] | 60 | –
C=C1C(=CC=C2CCCC3(C)C2CCC3C(C)CC=CC=CC(C)(C)O)CC(O)CC1O [Example 1, (5Z,7E ,23E,24aE)-(1R,3S)-24a,24b-dihomo-9,10-seco-cholesta-5,7,10(19),23,24a-pentaene-1,3,25-triol] | – | 10
C=C1/C(=C\C=C2/CCC[C@]3(C)[C@@H]([C@H](C)C/C=C/C=C/C(C)(C)O)CC[C@@H]23)C[C@H](O)C[C@@H]1O [Example 3, (5Z,7E,23E,24aE)-(1S,3S)-24a,24b-Dihomo-9,10-seco-cholesta-5,7,10(19),23,24a-pentaene-1,3,25-triol] | – | 30
C=C1/C(=C\C=C2/CCC[C@]3(C)[C@@H]([C@H](C)C/C=C/C=C/C(C)(C)O)CCC[C@@H]23)C[C@@H](O)C[C@@H]1O [Example 4, (5Z,7E,23E,24aE)-(1S,3R)-17a,24a,24b-trihomo-9,10-seco-cholesta-5,7,10(19),23,24a-pentaene-1,3,25-triol] | – | 1
C=C1/C(=C\C=C2/CCC[C@]3(C)C([C@H](C)C/C=C/C=C/C(C)(C)O)=CCC[C@@H]23)C[C@@H](O)C[C@@H]1O [Example 8, (5Z,7E,23E,24aE)-(1S,3R)-17a,24a,24b-Trihomo-9,10-seco-cholesta-5,7,10(19),17,23,24a-hexaene-1,3,25-triol] | – | 1
C[C@H](CC=CC#CC(C)(C)O)[C@H]1CC[C@H]2/C(=C/C=C3C[C@@H](O)C[C@H](O)C3)CCC[C@]12C [Example 13a, (7E,23E)- and (7E,23Z)-(1R,3R)-24a,24b-dihomo-19-nor-9,10-seco-cholesta-5,7,23-trien-24a-yne-1,3,25-triol] | – | 10
C[C@H](CC=CC#CC1(O)CCCC1)[C@H]1CC[C@H]2/C(=C/C=C3C[C@@H](O)C[C@H](O)C3)CCC[C@]12C [Example 13c, (7E,23E)- and (7E,23Z)-(1R,3R)-25-(1-hydroxy-cyclopentyl)-24a,24b-dihomo-19-nor-9,10-seco-cholesta-5,7,23-trien-24a-yne-1,3,25-diol] | – | 10
C[C@H](CC=CC#CC(O)(C(F)(F)F)C(F)(F)F)[C@H]1CC[C@H]2/C(=C/C=C3C[C@@H](O)C[C@H](O)C3)CCC[C@]12C [Example 13d, (7E,23E)- and (7E,23Z)-(1R,3R)-26,26,26,27,27,27-hexafluoro-24a,24b-dihomo-19-nor-9,10-seco-cholesta-5,7,23-trien-24a-yne-1,3,25-triol] | – | 10
CCC(O)(/C=C/C=CC[C@@H](C)[C@H]1CC[C@H]2/C(=C/C=C3C[C@@H](O)C[C@H](O)C3)CCC[C@]12C)CC [Example 13e, (7E,23E24aE)- and (7E,23Z,24aE)-(1R,3R)-24a,24b,26a,26b-tetrahomo-19-nor-9,10-seco-cholesta-5,7,23,24a-tetraen-24a-yne-1,3,25-triol] | – | 1
C[C@H](CC=C/C=C/C1(O)CCCC1)[C@H]1CC[C@H]2/C(=C/C=C3C[C@@H](O)C[C@H](O)C3)CCC[C@]12C [Example 13f, (7E,23E,24aE)- and (7E,23Z,24aE)-(1R,3R)-25-(1-hydroxy-cyclopentyl)-24a,24b-dihomo-19-nor-9,10-seco-cholesta-5,7,23,24a-tetraen-24a-yne-1,3,25-diol] | – | 10
